From the supplement of paper PMC10307832

How the values were obtained:
Experiment in all cases: relative viability (nuclei count vs DMSO), 5 days (fraction); higher = more cells survive
AZ628 + Lapatinib = compound: CC1=C(C=C(C=C1)NC(=O)C2=CC(=CC=C2)C(C)(C)C#N)NC3=CC4=C(C=C3)N=CN(C4=O)C [AZ628] + CS(=O)(=O)CCNCc1ccc(-c2ccc3ncnc(Nc4ccc(OCc5cccc(F)c5)c(Cl)c4)c3c2)o1 [Lapatinib] (partner 2 µM)
In short: (§1)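 Relative viability equals treated-well nuclei counts divided by vehicle-well nuclei counts. Counts came from 4× images of lung cancer cell lines grown in 1536-well plates for 5 days after pin-tool dosing on the day after seeding. Dosing used one drug alone or a fixed anchor-drug dose plus five library-drug doses (not always all listed) in √10 steps, and values are medians of duplicate plates.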

AZ628 + Foretinib = compound: CC1=C(C=C(C=C1)NC(=O)C2=CC(=CC=C2)C(C)(C)C#N)NC3=CC4=C(C=C3)N=CN(C4=O)C [AZ628] + COc1cc2c(Oc3ccc(NC(=O)C4(C(=O)Nc5ccc(F)cc5)CC4)cc3F)ccnc2cc1OCCCN1CCOCC1 [Foretinib] (partner 0.25 µM)
In short: as §1

AZ628 + Bortezomib = compound: CC1=C(C=C(C=C1)NC(=O)C2=CC(=CC=C2)C(C)(C)C#N)NC3=CC4=C(C=C3)N=CN(C4=O)C [AZ628] + CC(C)C[C@H](NC(=O)[C@H](Cc1ccccc1)NC(=O)c1cnccn1)B(O)O [Bortezomib] (partner 0.002 µM)
In short: as §1

QS11 + Palbociclib = compound: C1CC2=C(C1)C=C(C=C2)OC3=NC(=C4C(=N3)N(C=N4)CC5=CC=C(C=C5)C6=CC=CC=C6)N[C@@H](CC7=CC=CC=C7)CO [QS11] + CC(=O)c1c(C)c2cnc(Nc3ccc(N4CCNCC4)cn3)nc2n(C2CCCC2)c1=O [Palbociclib] (partner 0.5 µM)
In short: as §1

| Cell Line | relative viability (AZ628 + Lapatinib; first compound 0.08 µM) | relative viability (AZ628 + Lapatinib; first compound 0.253 µM) | relative viability (AZ628 + Lapatinib; first compound 0.8 µM) | relative viability (AZ628 + Lapatinib; first compound 2.53 µM) | relative viability (AZ628 + Lapatinib; first compound 8 µM) | relative viability (AZ628 + Foretinib; first compound 0.08 µM) | relative viability (AZ628 + Foretinib; first compound 0.253 µM) | relative viability (AZ628 + Foretinib; first compound 0.8 µM) | relative viability (AZ628 + Foretinib; first compound 2.53 µM) | relative viability (AZ628 + Foretinib; first compound 8 µM) | relative viability (AZ628 + Bortezomib; first compound 0.08 µM) | relative viability (AZ628 + Bortezomib; first compound 0.253 µM) | relative viability (AZ628 + Bortezomib; first compound 0.8 µM) | relative viability (AZ628 + Bortezomib; first compound 2.53 µM) | relative viability (AZ628 + Bortezomib; first compound 8 µM) | relative viability (QS11 + Palbociclib; first compound 0.253 µM) | relative viability (QS11 + Palbociclib; first compound 0.8 µM) | relative viability (QS11 + Palbociclib; first compound 2.53 µM) | relative viability (QS11 + Palbociclib; first compound 8 µM) | relative viability (QS11 + Palbociclib; first compound 0.08 µM) |
| --- | --- | --- | --- | --- | --- | --- | --- | --- | --- | --- | --- | --- | --- | --- | --- | --- | --- | --- | --- | --- |
| PC-14 | 0.347 | 0.365 | 0.351 | 0.313 | 0.343 | 0.95 | 0.916 | 0.949 | 0.945 | 0.765 | 0.815 | 0.746 | 0.942 | 1.08 | 0.604 | 0.608 | 0.455 | 0.44 | 0.434 | – |
| HCC-15 | 0.949 | 0.808 | 0.713 | 0.724 | 0.558 | 1.08 | 0.984 | 0.871 | 0.868 | 0.467 | 1.06 | 0.951 | 0.873 | 0.866 | 0.661 | 0.808 | 0.579 | 0.701 | 0.542 | 0.765 |
| NCI-H1437 | 0.858 | 0.735 | 0.738 | 0.94 | 0.97 | 1.26 | 1.13 | 1.25 | 1.28 | 1.23 | 0.488 | 0.544 | 0.425 | 0.486 | 0.556 | 0.351 | 0.239 | 0.287 | 0.239 | 0.299 |
| COR-L23 | 1.11 | 1.05 | 1.04 | 0.968 | 0.683 | 1.02 | 1 | 0.949 | 1.08 | 0.625 | 1.04 | 1.04 | 0.97 | 1.14 | 0.645 | 0.298 | 0.274 | 0.196 | 0.181 | 0.319 |
| NCI-H1975 | 0.866 | 0.723 | 0.85 | 0.921 | 0.513 | 0.905 | 0.922 | 0.872 | 0.918 | 0.582 | 0.409 | 0.343 | 0.303 | 0.281 | 0.241 | 0.531 | 0.58 | 0.74 | 0.733 | 0.555 |
| NCI-H1666 | 0.759 | 0.58 | 0.521 | 0.477 | 0.539 | 0.894 | 0.769 | 0.749 | 0.756 | 0.893 | 0.812 | 0.715 | 0.567 | 0.621 | 0.705 | 0.651 | 0.586 | 0.621 | 0.516 | 0.641 |
| A-427 | 1.1 | 0.599 | 0.99 | 1.06 | 0.773 | 0.996 | 0.872 | 0.542 | 0.643 | 0.34 | 0.884 | 0.993 | 1.1 | 0.94 | 0.452 | 0.582 | – | 0.551 | 0.574 | 0.553 |
| EKVX | 0.232 | 0.206 | 0.216 | 0.219 | 0.257 | 0.724 | 0.609 | 0.721 | 0.847 | 0.564 | 1.17 | 1.11 | 1.21 | 1.09 | 0.603 | 0.375 | 0.33 | 0.284 | 0.391 | 0.401 |
| NCI-H650 | 1.2 | 0.778 | 1.08 | 1.2 | 0.898 | 1.02 | 1.21 | 1.19 | 1.14 | 1.13 | 1.2 | 1.05 | 1.32 | 0.744 | 1.02 | 0.34 | 0.304 | 0.286 | 0.327 | 0.328 |
| NCI-H2087 | 0.795 | 0.799 | 0.636 | 0.865 | 0.41 | 0.839 | 0.821 | 0.727 | 0.78 | 0.256 | 0.831 | 0.738 | 0.783 | 0.775 | 0.399 | 0.27 | 0.247 | 0.2 | 0.197 | 0.249 |
| NCI-H1755 | 0.99 | 0.951 | 0.96 | 1.04 | 1.02 | 0.905 | 0.929 | 0.858 | 0.965 | 0.867 | 0.947 | 0.878 | 0.909 | 0.942 | 0.818 | 0.476 | 0.399 | 0.402 | 0.427 | 0.461 |
| COR-L 105 | 0.413 | 0.391 | 0.366 | 0.32 | 0.4 | 1.47 | 0.95 | 1.19 | 1.11 | 0.669 | 1.01 | 0.978 | 0.885 | 0.867 | 0.544 | 0.437 | 0.417 | 0.352 | 0.442 | 0.423 |
| NCI-H838 | 1.05 | 0.992 | 0.572 | 0.956 | 1.04 | 0.931 | 1 | 1.06 | 0.914 | 0.871 | 0.949 | 0.772 | 0.733 | 0.838 | 0.942 | 0.187 | 0.191 | 0.223 | 0.213 | 0.213 |
| NCI-H1993 | 0.883 | 0.78 | 0.766 | 0.834 | 0.838 | 1.05 | 0.68 | 0.714 | 0.715 | 0.667 | 1.1 | 1.03 | 0.932 | 0.711 | 0.815 | 0.544 | 0.59 | 0.708 | 0.641 | 0.646 |
